Laboratory results reported in patent US10358434B2, “2-(3-pyridinyl)-1H-benzimidazole derivative compound and medicament containing same” (NIHON MEDI-PHYSICS CO., LTD., priority 2014, dated 2019).

Legend:
[1] = Plasma stability evaluation (TLC analysis); format: in vitro ADME; conditions: 37° C., 60 minutes
Procedure: Evaluation was made using a heparin-treated normal human plasma pool (Kohjin Bio Co., Ltd.). Compounds [^18F] 100, [^18F] 200, [^123I] 400, [^18F] 500, and [^123I] 601 to 610 obtained by the methods shown in Examples 2, 4, 7, 9, 11, 13, 15, 17, 19, 21, 23, 25, 27, and 29 were each added to the aforementioned human plasma (5 mL), and the obtained mixture was then incubated at 37° C. for 60 minutes. Thereafter, the mixture was centrifuged with addition of methanol, so that a deproteinization treatment was carried out. Thereafter, stability was evaluated by TLC analysis. As TLC analysis conditions, the TLC analysis conditions applied upon the above described synthesis of each compound were applied.

[2] = system: human adrenal gland section expressing aldosterone-producing adenoma; experiment: In vitro autoradiography using human adrenal adenoma; format: binding
Excerpt: From adrenal gland excised from a human patient for treatment of primary aldosteronism, a portion containing aldosterone-producing adenoma was removed and was then frozen. The frozen adrenal gland was embedded in an embedding agent for production of a frozen tissue section (Tissue-Tek O.C.T. Compound, Sakura Finetek Japan). Using a freezing microtome (CM3050S, Leica Microsystems), a 7-μm thin slice section, which is schematically shown in FIGS. 17(a) and 17(b), was produced, and was preserved at −20° C. before use. In FIGS. 17, 71a and 71b indicate aldosterone-producing adenomas, 72a and 72b indicate normal adrenal cortexes, and 73a and 73b indicate normal adrenal medullas. A 5-33 kBq/mL solution was prepared by adding a suitable amount of each of Compounds [^18F] 100, [^18F] 200, [^123I] 400, [^18F] 500, and [^123I] 601 to [^123I] 610, which were obtained by the methods described in Examples 2, 4, 7, 9, 11, 13, 15, 17, 19, 21, 23, 25, 27, and 29, or [^123I] IMTO to a phosphate-buffered physiological saline containing 1 w/v % bovine serum albumin (not containing fatty acid). The radioactivity concentration was measured using an autowell gamma system (ARC-7001, manufactured by Hitachi Aloka Medical, Ltd.). The section was immersed in the obtained sample solution for 10 minutes. For Compounds [^18F] 100, [^18F] 200, [^123I] 400, [^18F] 500, [^123I] 601 and [^123I] 602, the section shown in FIG. 17(a) was used, and for Compounds […] [^123I] IMTO, both sections shown in FIGS. 17(a) and (b) were used. Each sample solution was washed off, and the section was then exposed to an imaging plate (BAS-SR2040, manufactured by FUJIFILM Holdings Corporation) (IP) for 16-20 hours, and thereafter, an autoradiogram was obtained using a fluoro-image analyzer (FLA-7000, manufactured by FUJIFILM Holdings Corporation).
In order to quantitatively compare differences between images caused by ^123I and ^18F nuclides, a correction was made by calculating accumulation of radioactivity within the range of a region of interest (ROI) by means of integral calculation based on half-life, added radioactivity and IP contact time.
610. FIG. 18(b), FIG. 19(b), FIG. 20(b), FIG. 21(b), FIG. 22(a), FIG. 23(a), FIG. 24(a), FIG. 25(a), FIG. 26(a), FIG. 27(a), FIG. 28(a), FIG. 29(a), FIG. 30(a), and FIG. 31(a) each show an autoradiogram of [^123I] IMTO. […] 100, [^18F] 200, [^123I] 400, [^18F] 500, and [^123I] 601 to [^123I] […] The ROI having the same area as each other was established in a normal site and in a site in which aldosterone-producing adenoma had developed. Then, the PSL value (B1) indicating accumulation of radioactivity in the sites of normal adrenal cortexes 72a and 72b was compared with the PSL value (B2) indicating accumulation of radioactivity in the sites of aldosterone-producing adenomas 71a and 71b. In Table 7, the B1, B2 and B2/B1 values of [^18F] 100 indicate the mean values for the number of tests (n), respectively.

[3] = In vivo kinetics experiment (radioactivity distribution); design: species or system Wistar male rat; conditions: rat; for Adrenal gland/blood ratio of radioactivity accumulation / Adrenal gland/fat ratio of radioactivity accumulation / Adrenal gland/kidney ratio of radioactivity accumulation / Adrenal gland/liver ratio of radioactivity accumulation / Adrenal gland/muscle ratio of radioactivity accumulation / Adrenal gland/small intestine ratio of radioactivity accumulation / Radioactivity distribution Adrenal gland / Radioactivity distribution Bladder (including urine) / Radioactivity distribution Blood / Radioactivity distribution Fat / Radioactivity distribution Femur / Radioactivity distribution Heart / Radioactivity distribution Kidney / Radioactivity distribution Large intestine / Radioactivity distribution Liver / Radioactivity distribution Lung / Radioactivity distribution Muscle (lower limbs) / Radioactivity distribution Remaining whole body / Radioactivity distribution Small intestine / Radioactivity distribution Spleen / Radioactivity distribution Stomach / Radioactivity distribution Testis / Radioactivity distribution Whole brain: caudal vein
Procedure: Each of Compounds [^18F] 100, [^18F] 200, [^123I] 400, [^18F] 500, and [^123I] 601 to 610 obtained by the methods described in Examples 2, 4, 7, 9, 11, 13, 15, 17, 19, 21, 23, 25, 27, and 29, or [^123I] IMTO, was diluted with a physiological saline containing 1 w/v % ascorbic acid to prepare a solution to be administered. The above described compound (approximately 1 to 3.7 MBq) was injected into the caudal vein of a Wistar male rat (9 weeks old) under anesthesia with a mixed gas of isoflurane/air, and ten minutes after the injection, the rat was sacrificed by exsanguination. From the thus sacrificed rat, blood and organs (heart, lung, stomach, liver, spleen, small intestine, large intestine, kidney, bladder (including urine), muscle (lower limbs), brain, adrenal gland, testis, fat, femur, or thyroid gland) were excised, and the weights thereof were then measured. Thereafter, radioactivity was measured in the blood, the individual excised organs, and the remaining whole body. Further, 30 and 60 minutes after the administration, the same operations as those described above were carried out. […] The symbol “n” in Tables 9 to 23 indicates the number of rats used. In addition, Tables 9 to 23 also show the ratio of radioactivity accumulation in adrenal grand (% ID/g) to radioactivity accumulation in each of blood, liver, kidney, small intestine, muscle and fat (% ID/g).

## Fc1cc2nc(-c3cncc(Cn4ccnc4)c3)n(CCC[18F])c2cc1Cl [[^18F] 500, 6-Chloro-5-fluoro-1-(3-[^18F]fluoropropyl)-2-[5-(imidazol-1-ylmethyl)pyridin-3-yl]benzimidazole]
[1]
  stability in human plasma: hardly metabolized and decomposed in the plasma
[1]; TLC analysis
  Radiochemical purity after incubation in human plasma: 88%
[2]; FIGS. 18 to 31
  accumulation of radioactivity in adrenal gland section (autoradiogram): accumulation of radioactivity was selectively observed in a region in which aldosterone-producing adenoma had been pathologically observed
[2]; section of FIG. 17(a)
  B2/B1 accumulation ratio: 5.63
[2]; section of FIG. 17(a), site 71a
  B2 (PSL value, aldosterone-producing adenoma): 3619
[2]; section of FIG. 17(a), site 72a
  B1 (PSL value, normal adrenal cortex): 643
[3]; Tables 9 to 22
  accumulation of radioactivity in adrenal gland vs blood and peripheral tissues: high accumulation of radioactivity in adrenal gland was observed, in comparison to in blood and peripheral tissues
[3]; 10 min after administration
  Adrenal gland/blood ratio of radioactivity accumulation: 158.10 ± 31.05
  Adrenal gland/fat ratio of radioactivity accumulation: 210.51 ± 56.26
  Adrenal gland/kidney ratio of radioactivity accumulation: 14.57 ± 3.27
  Adrenal gland/liver ratio of radioactivity accumulation: 3.45 ± 0.50
  Adrenal gland/muscle ratio of radioactivity accumulation: 74.08 ± 27.27
  Adrenal gland/small intestine ratio of radioactivity accumulation: 13.90 ± 1.21
  Radioactivity distribution Adrenal gland: 18.45 ± 3.39 % ID/g
  Radioactivity distribution Bladder (including urine): 0.86 ± 0.38 % ID/g
  Radioactivity distribution Blood: 0.12 ± 0.02 % ID/g
  Radioactivity distribution Fat: 0.09 ± 0.02 % ID/g
  Radioactivity distribution Femur: 0.25 ± 0.01 % ID/g
  Radioactivity distribution Heart: 0.31 ± 0.03 % ID/g
  Radioactivity distribution Kidney: 1.28 ± 0.08 % ID/g
  Radioactivity distribution Large intestine: 0.23 ± 0.03 % ID/g
  Radioactivity distribution Liver: 5.32 ± 0.21 % ID/g
  Radioactivity distribution Lung: 0.68 ± 0.08 % ID/g
  Radioactivity distribution Muscle (lower limbs): 0.27 ± 0.08 % ID/g
  Radioactivity distribution Remaining whole body: 0.20 ± 0.02 % ID/g
  Radioactivity distribution Small intestine: 1.32 ± 0.13 % ID/g
  Radioactivity distribution Spleen: 0.93 ± 0.10 % ID/g
  Radioactivity distribution Stomach: 0.86 ± 0.06 % ID/g
  Radioactivity distribution Testis: 0.06 ± 0.01 % ID/g
  Radioactivity distribution Whole brain: 0.02 ± 0.00 % ID/g
[3]; 30 min after administration
  Adrenal gland/blood ratio of radioactivity accumulation: 206.39 ± 28.57
  Adrenal gland/fat ratio of radioactivity accumulation: 295.05 ± 101.53
  Adrenal gland/kidney ratio of radioactivity accumulation: 19.08 ± 3.40
  Adrenal gland/liver ratio of radioactivity accumulation: 4.39 ± 0.61
  Adrenal gland/muscle ratio of radioactivity accumulation: 160.44 ± 36.00
  Adrenal gland/small intestine ratio of radioactivity accumulation: 5.99 ± 1.25
  Radioactivity distribution Adrenal gland: 20.88 ± 2.82 % ID/g
  Radioactivity distribution Bladder (including urine): 2.02 ± 1.20 % ID/g
  Radioactivity distribution Blood: 0.10 ± 0.01 % ID/g
  Radioactivity distribution Fat: 0.07 ± 0.02 % ID/g
  Radioactivity distribution Femur: 0.14 ± 0.01 % ID/g
  Radioactivity distribution Heart: 0.25 ± 0.02 % ID/g
  Radioactivity distribution Kidney: 1.10 ± 0.08 % ID/g
  Radioactivity distribution Large intestine: 0.28 ± 0.04 % ID/g
  Radioactivity distribution Liver: 4.76 ± 0.15 % ID/g
  Radioactivity distribution Lung: 0.44 ± 0.02 % ID/g
  Radioactivity distribution Muscle (lower limbs): 0.13 ± 0.01 % ID/g
  Radioactivity distribution Remaining whole body: 0.11 ± 0.01 % ID/g
  Radioactivity distribution Small intestine: 3.54 ± 0.51 % ID/g
  Radioactivity distribution Spleen: 0.41 ± 0.06 % ID/g
  Radioactivity distribution Stomach: 1.11 ± 0.14 % ID/g
  Radioactivity distribution Testis: 0.08 ± 0.01 % ID/g
  Radioactivity distribution Whole brain: 0.01 ± 0.00 % ID/g
[3]; 60 min after administration
  Adrenal gland/blood ratio of radioactivity accumulation: 214.22 ± 75.71
  Adrenal gland/fat ratio of radioactivity accumulation: 371.37 ± 112.38
  Adrenal gland/kidney ratio of radioactivity accumulation: 17.62 ± 3.44
  Adrenal gland/liver ratio of radioactivity accumulation: 7.45 ± 2.80
  Adrenal gland/muscle ratio of radioactivity accumulation: 210.35 ± 70.86
  Adrenal gland/small intestine ratio of radioactivity accumulation: 4.17 ± 1.22
  Radioactivity distribution Adrenal gland: 21.41 ± 4.42 % ID/g
  Radioactivity distribution Bladder (including urine): 3.87 ± 0.37 % ID/g
  Radioactivity distribution Blood: 0.10 ± 0.02 % ID/g
  Radioactivity distribution Fat: 0.06 ± 0.02 % ID/g
  Radioactivity distribution Femur: 0.12 ± 0.03 % ID/g
  Radioactivity distribution Heart: 0.24 ± 0.04 % ID/g
  Radioactivity distribution Kidney: 1.23 ± 0.22 % ID/g
  Radioactivity distribution Large intestine: 0.41 ± 0.09 % ID/g
  Radioactivity distribution Liver: 3.08 ± 0.99 % ID/g
  Radioactivity distribution Lung: 0.48 ± 0.04 % ID/g
  Radioactivity distribution Muscle (lower limbs): 0.11 ± 0.03 % ID/g
  Radioactivity distribution Remaining whole body: 0.10 ± 0.02 % ID/g
  Radioactivity distribution Small intestine: 5.36 ± 1.39 % ID/g
  Radioactivity distribution Spleen: 0.32 ± 0.09 % ID/g
  Radioactivity distribution Stomach: 1.66 ± 0.45 % ID/g
  Radioactivity distribution Testis: 0.11 ± 0.03 % ID/g
  Radioactivity distribution Whole brain: 0.02 ± 0.00 % ID/g
